{"source": "paper PMC3589633", "about": "(Investigational New Drugs, 2012)", "key": {"advanced solid tumors": {"system": "advanced solid tumors", "assay": "Antitumor activity by RECIST", "assay_type": "in vivo, human"}, "[1]": {"assay": "Plasma pharmacokinetics, noncompartmental analysis", "assay_type": "in vivo, human", "conditions": "for clearance: total body clearance"}, "[2]": {"system": "patients with advanced or metastatic solid tumors", "conditions": "in vivo"}, "HER2": {"system": "HER2", "conditions": "read-out: half-maximal inhibitory concentration (IC50); cited from earlier work"}, "HER4": {"system": "HER4", "conditions": "read-out: half-maximal inhibitory concentration (IC50); cited from earlier work"}, "[3]": {"system": "patients with advanced solid tumors", "conditions": "cited from earlier work"}, "[4]": {"system": "patients with advanced or metastatic solid tumors"}, "[5]": {"conditions": "20 mg q.d. oral, Day 27 steady state, n = 3"}, "[6]": {"conditions": "60 mg q.d. oral, Day 27 steady state, individual value from one patient"}}, "note": "Where two headings read alike, the source gives them in different places. Marks after values point to notes of the source that are not given here."}
{"smiles": "CN(C)C/C=C/C(=O)Nc1cc2c(Nc3ccc(F)c(Cl)c3)ncnc2cc1O[C@H]1CCOC1", "note": "[afatinib]", "values": [{"measurement": "patients with stable disease", "setting": "advanced solid tumors; 40 mg dose cohort", "value": "Five"}, {"measurement": "objective responses", "setting": "advanced solid tumors; 29 evaluable patients, RECIST", "value": "No objective responses"}, {"measurement": "patients remaining on treatment for more than 16 weeks", "setting": "advanced solid tumors; one in 20 mg/d group, two in 40 mg/d group", "value": "Three"}, {"measurement": "duration of stable disease", "setting": "advanced solid tumors; one ovarian cancer patient, 20 mg group", "value": 204, "unit": "days"}, {"measurement": "Cpre,ss gMean", "setting": "[1]; 10 mg q.d. oral, Day 27 steady state, N = 2", "value": "2.64^b ng/mL"}, {"measurement": "CL/F,ss gMean", "setting": "[1]; 10 mg q.d. oral, Day 27 steady state, n = 3", "value": 2980, "unit": "mL/min"}, {"measurement": "CL/F,ss gMean", "setting": "[1]; [5]", "value": 755, "unit": "mL/min"}, {"measurement": "Cpre,ss gMean", "setting": "[1]; [5]", "value": 12.5, "unit": "ng/mL"}, {"measurement": "Cpre,ss gMean", "setting": "[1]; 40 mg q.d. oral, Day 27 steady state, N = 16", "value": "16.1^c ng/mL"}, {"measurement": "CL/F,ss", "setting": "[1]; [6]", "value": 567, "unit": "mL/min"}, {"measurement": "Cpre,ss", "setting": "[1]; [6]", "value": 52.3, "unit": "ng/mL"}, {"measurement": "dose-proportionality", "setting": "[1]; 10-60 mg, steady state", "value": "no obvious deviation from dose-proportionality"}, {"measurement": "steady-state reached", "setting": "[1]; Treatment Period 1, once-daily oral", "value": "≤ 8", "unit": "days"}, {"measurement": "half-life", "setting": "[1]; human, plasma, oral", "value": 2240, "unit": "min"}, {"measurement": "Vd", "setting": "[1]; human, plasma, oral, apparent volume of distribution during the terminal phase, overall gMean, all groups (data not shown)", "value": 3630, "unit": "L"}, {"measurement": "clearance", "setting": "[1]; human, plasma, oral, gMean, range across dose groups", "value": "567 to 2980", "unit": "mL/min"}, {"measurement": "clearance", "setting": "[1]; human, plasma, oral, overall gMean, across all groups (data not shown)", "value": 1330, "unit": "mL/min"}, {"measurement": "half-life", "setting": "[1]; human, plasma, po", "value": "2040 to 2880", "unit": "min"}, {"measurement": "Patients discontinued owing to DLT", "setting": "[2]; human", "value": "2 (6.7) n, %"}, {"measurement": "Patients discontinued owing to Other AEs", "setting": "[2]; human", "value": "3 (10.0) n, %"}, {"measurement": "dermatitis acneiform, treatment-related AE, patients", "setting": "[2]; human", "value": 33.3, "unit": "%"}, {"measurement": "diarrhea, treatment-related AE, patients", "setting": "[2]; human", "value": 76.7, "unit": "%"}, {"measurement": "fatigue, treatment-related AE, patients", "setting": "[2]; human", "value": 33.3, "unit": "%"}, {"measurement": "mucosal inflammation, treatment-related AE, patients", "setting": "[2]; human", "value": 43.3, "unit": "%"}, {"measurement": "onset of diarrhea during the first treatment course, patients", "setting": "[2]; human", "value": 70, "unit": "%"}, {"measurement": "patients with AEs considered related to study medication", "setting": "[2]; human", "value": 29}, {"measurement": "patients with at least one AE", "setting": "[2]; human", "value": 30}, {"measurement": "Patients with DLT events during the initial 28-day treatment period", "setting": "[2]; human, 28 days", "value": 3, "unit": "n"}, {"measurement": "cardiac events", "setting": "[2]", "value": "No cardiac events were reported"}, {"measurement": "patients with DLT, in total", "setting": "[2]", "value": "three patients"}, {"measurement": "IC50", "setting": "HER2", "value": 14, "unit": "nM"}, {"measurement": "IC50", "setting": "HER4", "value": 1, "unit": "nM"}, {"measurement": "dose that could be safely administered", "setting": "[3]; 2-week on/2-week off schedule", "value": 70, "unit": "mg/day"}, {"measurement": "dose administered with tolerable side effects", "setting": "[3]; 3-week on/1-week off schedule", "value": 40, "unit": "mg/day"}, {"measurement": "maximum tolerated dose (MTD)", "setting": "[3]; 3-week on/1-week off schedule", "value": 55, "unit": "mg/day"}, {"measurement": "recommended Phase II dose (RP2D)", "setting": "[3]; once-daily, 2-week on/off schedule", "value": 70, "unit": "mg"}, {"measurement": "Patients discontinued owing to Disease progression", "setting": "[4]; 10 mg/day", "value": "4 (80) n, %"}, {"measurement": "Patients discontinued owing to Disease progression", "setting": "[4]; 20 mg/day", "value": "3 (100) n, %"}, {"measurement": "Patients discontinued owing to Disease progression", "setting": "[4]; 40 mg/day", "value": "14 (73.7) n, %"}, {"measurement": "Patients discontinued owing to Disease progression", "setting": "[4]; 60 mg/day", "value": "1 (33.3) n, %"}, {"measurement": "Patients discontinued owing to Disease progression", "setting": "[4]; Total", "value": "22 (73.3) n, %"}, {"measurement": "MTD", "setting": "[4]; continuous once-daily oral, 28-day cycles", "value": 40, "unit": "mg/day"}]}
